Laboratory results reported in patent US10350210B2, “EGFR and ALK dual inhibitor” (PRECEDO PHARMACEUTICALS CO., LTD, priority 2015, dated 2019).

Tests used:
Type in all cases: cell-based
[1] = test system: PC-9; experiment: Growth of cancer cells (Cell Titer-Glo viability), PC-9; details: Homo sapiens; PC-9 (EGFR delE746_A750 mutant), 72 hrs
Summary of the method: (§1)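 Cells are counted as viable by CellTiter-Glo chemiluminescence. Murine BaF3 lines depend on a stably transfected TEL-fused kinase after IL-3 withdrawal, and the NSCLC lines express mutant EGFR.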

[2] = test system: BaF3-TEL-EGFR-T790M; experiment: Cell growth (Cell Titer-Glo viability), BaF3-TEL-EGFR-T790M; details: Mus musculus; BaF3-TEL-EGFR-T790M (EGFR T790M mutant kinase), 72 hrs
Summary of the method: (§2)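 BaF3, TEL-kinase fusion, IL-3-free, transgene-driven growth; HCC827 = EGFR del19, NCI-H3255 = EGFR L858R. Viable cells via CellTiter-Glo, plate-reader luminescence.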

[3] = test system: HCC827; experiment: Growth of cancer cells (Cell Titer-Glo viability), HCC827; details: Homo sapiens; HCC827 (mutant EGFR del19), 72 hrs
Summary of the method: as §2

[4] = test system: BaF3-TEL-INSR; experiment: Cell growth (Cell Titer-Glo viability), BaF3-TEL-INSR; details: Mus musculus; BaF3-TEL-INSR (stably expressing INSR protein), 72 hrs
Source text: (§3) By testing the effect of the novel kinase inhibitors on the proliferation of cancer cells, the selectivity of the compounds of the present disclosure in inhibiting the proliferation of cancer cells was further assessed. In this example, human non-small cell lung cancer cell NCI-H1975 (expressing EGFR L858R/T790M double mutant gene), human skin squamous carcinoma cell A431 (expressing wild-type EGFR gene), non-small cell lung cancer NCI-H3255 (expressing EGFR L858R mutant gene), non-small cell lung cancer cell NCI-H3122 (expressing ALK gene), human non-small cell lung cancer cell A549 (expressing wild-type EGFR gene), human non-small cell lung cancer cell NCI-H2122 (expressing wild-type EGFR gene), human non-small cell lung cancer cell NCI-H460 (expressing wild-type EGFR gene), human non-small cell lung cancer cell PC-9 (expressing EGFR delE746_A750 mutant gene), Chinese hamster ovary cell CHO (Cricetulus griseus, hamster, Chinese, ovary), Chinese hamster lung cell CHL, human non-small cell lung cancer cell HCC827 (expressing mutant EGFR del19 gene), human lung adenocarcinoma cell HCC4006 (expressing mutant EGFR del19 gene), human non-small cell lung cancer cell NCI-H2228 (expressing wild-type ALK gene), and mouse primary B cell BaF3 were used, and the above cells were all purchased from ATCC (US). In addition, mouse BaF3-TEL-ALK (stably expressing ALK kinase), mouse BaF3-ALK-F1174L (stably expressing mutant ALK F1174L kinase), mouse BaF3-NPM-ALK (stably expressing ALK kinase), mouse BaF3-TEL-EGFR (stably expressing EGFR kinase), mouse BaF3-TEL-EGFR-T790M (stably expressing EGFR T790M mutant kinase), mouse BaF3-FL-EGFR-Del19 (stably expressing EGFR delE746_A750 mutant kinase), mouse BaF3-TEL-EGFR-L858R (stably expressing EGFR L858R mutant kinase), mouse BaF3-FL-EGFR-T790M-L858R (stably expressing EGFR T790M/L858R mutant kinase), mouse BaF3-TEL-INSR (stably expressing INSR protein), mouse BaF3-TEL-IGF1R (stably expressing IGF1R Protein), mouse BaF3-EML4-ALK (stably expressing EML4-ALK Protein), mouse BaF3-TEL-JAK3 (stably expressing JAK3 kinase protein), mouse BaF3-TEL-CSF1R (stably expressing CSF1R protein), and mouse BaF3-TEL-ALK-F1196M (stably expressing ALK F1196M mutant kinase) were also used in this example. The above cell lines were all established by our laboratory via the following process: kinase proteins or protein domain sequences of human ALK, ALK F1174L, EGFR, EGFR T790M, EGFR delE746_A750, EGFR L858, EGFR T790M/L858R, INSR, IGF1R, EML4-ALK, JAK3, CSF1R, ALK F1196M were amplified respectively by PCR, and were respectively inserted into MSCV-Puro vector (Clontech) with N-terminal TEL fragments and/or NPM fragments and/or TPR fragments; the resultants were stably transfected into mouse BaF3 cells by the means of retrovirus, and the IL-3 growth factors were removed, and eventually the ALK, ALK F1174L, EGFR, EGFR T790M, EGFR delE746_A750, EGFR L858, EGFR T790M/L858R, INSR, IGF1R, EML4-ALK, JAK3, CSF1R, ALK F1196M-transferred protein dependent cell lines were obtained.
(§4) The number of viable cells was determined quantitatively by a microplate reader using Cell Titer-Glo® (Promega, US) chemiluminescence cell viability assay kit.

[5] = test system: A549; experiment: Growth of cancer cells (Cell Titer-Glo viability), A549; details: Homo sapiens; A549 (wild-type EGFR), 72 hrs
[6] = test system: BaF3-TEL-ALK; experiment: Cell growth (Cell Titer-Glo viability), BaF3-TEL-ALK; details: Mus musculus; BaF3-TEL-ALK (stably expressing ALK kinase), 72 hrs
Summary of the method: as §2

[7] = test system: BaF3-TEL-IGF1R; experiment: Cell growth (Cell Titer-Glo viability), BaF3-TEL-IGF1R; details: Mus musculus; BaF3-TEL-IGF1R (stably expressing IGF1R protein), 72 hrs
Source text: as §3, with “The above cell lines were all established by our laboratory via the following process: kinase proteins or protein domain sequences of human ALK, ALK F1174L, EGFR, EGFR T790M, EGFR delE746_A750, EGFR L858, EGFR T790M/L858R, INSR, IGF1R, EML4-ALK, JAK3, CSF1R, ALK F1196M were amplified respectively by PCR, and were respectively inserted into MSCV-Puro vector (Clontech) with N-terminal TEL fragments and/or NPM fragments and/or TPR fragments; the resultants were stably transfected into mouse BaF3 cells by the means of retrovirus, and the IL-3 growth factors were removed, and eventually the ALK, ALK F1174L, EGFR, EGFR T790M, EGFR delE746_A750, EGFR L858, EGFR T790M/L858R, INSR, IGF1R, EML4-ALK, JAK3, CSF1R, ALK F1196M-transferred protein dependent cell lines were obtained.” left out
as §4

[8] = test system: BaF3-TEL-JAK3; experiment: Cell growth (Cell Titer-Glo viability), BaF3-TEL-JAK3; details: Mus musculus; BaF3-TEL-JAK3 (stably expressing JAK3 kinase protein), 72 hrs
Source text: as §3, §4

[9] = test system: NCI-H1975; experiment: Growth of cancer cells (Cell Titer-Glo viability), NCI-H1975; details: Homo sapiens; NCI-H1975 (EGFR L858R/T790M double mutant), 72 hrs
Summary of the method: as §1

[10] = test system: BaF3-EML4-ALK; experiment: Cell growth (Cell Titer-Glo viability), BaF3-EML4-ALK; details: Mus musculus, Ba/F3 EML4-ALK; BaF3-EML4-ALK (stably expressing EML4-ALK protein), 72 hrs
Source text: as §3, §4

[11] = test system: NCI-H3122; experiment: Growth of cancer cells (Cell Titer-Glo viability), NCI-H3122; details: Homo sapiens; NCI-H3122 (expressing ALK gene), 72 hrs; read-out: GI50
[12] = test system: BaF3; experiment: Cell growth (Cell Titer-Glo viability), BaF3; details: BaF3 mouse primary B cell, 72 hrs
[13] = test system: BaF3-TEL-CSF1R; experiment: Cell growth (Cell Titer-Glo viability), BaF3-TEL-CSF1R; details: Mus musculus; BaF3-TEL-CSF1R (stably expressing CSF1R protein), 72 hrs
Source text: as §3, with “The above cell lines were all established by our laboratory via the following process: kinase proteins or protein domain sequences of human ALK, ALK F1174L, EGFR, EGFR T790M, EGFR delE746_A750, EGFR L858, EGFR T790M/L858R, INSR, IGF1R, EML4-ALK, JAK3, CSF1R, ALK F1196M were amplified respectively by PCR, and were respectively inserted into MSCV-Puro vector (Clontech) with N-terminal TEL fragments and/or NPM fragments and/or TPR fragments; the resultants were stably transfected into mouse BaF3 cells by the means of retrovirus, and the IL-3 growth factors were removed, and eventually the ALK, ALK F1174L, EGFR, EGFR T790M, EGFR delE746_A750, EGFR L858, EGFR T790M/L858R, INSR, IGF1R, EML4-ALK, JAK3, CSF1R, ALK F1196M-transferred protein dependent cell lines were obtained.” left out
as §4

[14] = test system: BaF3-TEL-ALK-F1196M; experiment: Cell growth (Cell Titer-Glo viability), BaF3-TEL-ALK-F1196M; details: Mus musculus; BaF3-TEL-ALK-F1196M (ALK F1196M mutant kinase), 72 hrs
Source text: By testing the effect of the novel kinase inhibitors on the proliferation of cancer cells, the selectivity of the compounds of the present disclosure in inhibiting the proliferation of cancer cells was further assessed. In this example, human non-small cell lung cancer cell NCI-H1975 (expressing EGFR L858R/T790M double mutant gene), human skin squamous carcinoma cell A431 (expressing wild-type EGFR gene), non-small cell lung cancer NCI-H3255 (expressing EGFR L858R mutant gene), non-small cell lung cancer cell NCI-H3122 (expressing ALK gene), human non-small cell lung cancer cell A549 (expressing wild-type EGFR gene), human non-small cell lung cancer cell NCI-H2122 (expressing wild-type EGFR gene), human non-small cell lung cancer cell NCI-H460 (expressing wild-type EGFR gene), human non-small cell lung cancer cell PC-9 (expressing EGFR delE746_A750 mutant gene), Chinese hamster ovary cell CHO (Cricetulus griseus, hamster, Chinese, ovary), Chinese hamster lung cell CHL, human non-small cell lung cancer cell HCC827 (expressing mutant EGFR del19 gene), human lung adenocarcinoma cell HCC4006 (expressing mutant EGFR del19 gene), human non-small cell lung cancer cell NCI-H2228 (expressing wild-type ALK gene), and mouse primary B cell BaF3 were used, and the above cells were all purchased from ATCC (US). […]
as §4

[15] = test system: BaF3-NPM-ALK; experiment: Cell growth (Cell Titer-Glo viability), BaF3-NPM-ALK; details: Mus musculus; BaF3-NPM-ALK (stably expressing ALK kinase), 72 hrs

Compound | GI50 [1] | GI50 [2] | GI50 [3] | GI50 [4] | GI50 [5] | GI50 [6] | GI50 [7] | GI50 [8] | GI50 [9] | GI50 [10] | GI50 [11] | GI50 [12] | GI50 [13] | GI50 [14] | GI50 [15]
C=CC(=O)Nc1cc(Nc2ncc(Cl)c(Nc3ccccc3C(=O)NC)n2)c(OC)cc1N1CCN(C(C)=O)CC1 [Compound 68, 2-(2-(4-(4-ethanoylpiperazin-1-yl)-5-acrylamido-2-methoxyphenylamino)-5-chloropyrimidin-4-ylamino)-N-methylbenzamide] | 0.097 µM | 0.25 µM | 0.083 µM | 0.014 µM | 1.7 µM | 0.12 µM | 0.041 µM | 0.27 µM | 0.25 µM | 0.16 µM | 0.012 µM | 5.7 µM | – | – | –
C=CC(=O)Nc1cc(Nc2ncc(Cl)c(Nc3ccccc3C(=O)NC)n2)c(OC)cc1N1CCN(C(C)C)CC1 [Compound 69, 2-(2-(5-acrylamido-4-(4-isopropylpiperazin-1-yl)-2-methoxyphenylamino)-5-chloropyrimidin-4-ylamino)-N-methylbenzamide] | 0.015 µM | – | 0.062 µM | 0.049 µM | – | – | – | 0.037 µM | 0.079 µM | 0.0014 µM | 0.0045 µM | 1.1 µM | 0.1 µM | – | –
C=CC(=O)Nc1cc(Nc2ncc(Cl)c(Nc3ccccc3C(=O)NC)n2)c(OC)cc1N1CCN(C2CCCCC2)CC1 [Compound 70, 2-(2-(5-acrylamido-4-(4-cyclohexylpiperazin-1-yl)-2-methoxyphenylamino)-5-chloropyrimidin-4-ylamino)-N-methylbenzamide] | 0.035 µM | – | 0.14 µM | < 0.0003 µM | – | – | – | 0.058 µM | 0.065 µM | 0.0045 µM | 0.0076 µM | 1 µM | 0.17 µM | – | –
C=CC(=O)Nc1cc(Nc2ncc(Cl)c(Nc3ccccc3C(=O)NC)n2)c(OC)cc1N(C)CCN(C)C [Compound 71, 2-(2-(5-acrylamido-4-((2-(dimethylamino)ethyl)(methyl)amino)-2-methoxyphenylamino)-5-chloropyrimidin-4-ylamino)-N-methylbenzamide] | 0.002 µM | – | 0.016 µM | 0.0084 µM | – | – | – | 0.009 µM | 0.012 µM | 0.012 µM | 0.0043 µM | 0.94 µM | 0.15 µM | – | –
C=CC(=O)Nc1cc(Nc2ncc(Cl)c(Nc3ccccc3C(=O)NC)n2)c(OC)cc1N1CCN(C2CCN(C)CC2)CC1 [Compound 72, 2-(2-(5-acrylamido-2-methoxy-4-(4-(1-methylpiperidin-4-yl)piperazin-1-yl)phenylamino)-5-chloropyrimidin-4-ylamino)-N-methylbenzamide] | 0.12 µM | – | 0.21 µM | 0.049 µM | – | – | – | 0.29 µM | 0.12 µM | 0.071 µM | 0.018 µM | 1.7 µM | 0.37 µM | – | –
C=CC(=O)Nc1cc(Nc2ncc(F)c(Nc3ccccc3S(=O)(=O)C(C)C)n2)c(OC)cc1N1CCN(CC)CC1 [Compound 82, N-(2-(4-ethylpiperazin-1-yl)-5-(5-fluoro-4-(2-(isopropylsulfonyl)phenylamino)pyrimidin-2-ylamino)-4-methoxyphenyl)acrylamide] | 0.014 µM | – | – | 0.007 µM | – | 0.001 µM | – | – | 0.048 µM | – | 0.002 µM | 3 µM | – | 0.006 µM | 0.001 µM
C=CC(=O)Nc1cc(Nc2ncc(Br)c(Nc3ccccc3S(=O)(=O)C(C)C)n2)c(OC)cc1N1CCN(CC)CC1 [Compound 83, N-(5-(5-bromo-4-(2-(isopropylsulfonyl)phenylamino)pyrimidin-2-ylamino)-2-(4-ethylpiperazin-1-yl)-4-methoxyphenyl)acrylamide] | 0.058 µM | – | – | < 0.0003 µM | – | 0.001 µM | – | – | < 0.0003 µM | – | 0.002 µM | 0.38 µM | – | < 0.0003 µM | < 0.0003 µM
C=CC(=O)Nc1cc(Nc2ncc(C)c(Nc3ccccc3S(=O)(=O)C(C)C)n2)c(OC)cc1N1CCN(CC)CC1 [Compound 84, N-(2-(4-ethylpiperazin-1-yl)-5-(4-(2-(isopropylsulfonyl)phenylamino)-5-methylpyrimidin-2-ylamino)-4-methoxyphenyl)acrylamide] | 0.006 µM | – | – | 0.004 µM | – | 0.001 µM | – | – | 0.043 µM | – | 0.002 µM | 6.6 µM | – | 0.002 µM | 0.002 µM
